We go through 14 compounds from patent publication US9714249B2 (Novartis AG, priority 2013, dated 2017).

The target in test [1] is BRD4-NUT-fusion (Homo sapiens (Human), UniProt O60885+Q86Y26). Put plainly: Nut-foci formation assay (HCS) in HCC2494 NUT midline carcinoma cells. Type of test: cell-based. Particulars: 24 hours, nuclear BRD4-NUT foci, immunofluorescence. The protocol: Compound-mediated inhibition of BRD4 activity was monitored by quantification of the number and intensity of nuclear BRD4-NUT foci using automated immunofluorescence microscopy. Briefly, 5000 cells in 20 μl fresh medium were seeded into Poly-D-Lysine-precoated 384-well plates and incubated overnight at 37° C. and 5% CO2, followed by addition of 5 μl medium containing compound dilutions at 5-fold their final intended concentration. Dose-response effects were assessed by 3-fold serial dilutions of the test compound, starting at 10 μM. […] Assay plates were imaged using the appropriate filter sets on the Cellomics VTi automated fluorescence microscopy platform (ThermoFisher Scientific) and the population average of the number of NUT-foci per nucleus is quantified using the Cellomics Spot Detection BioApplication image analysis algorithm (ThermoFisher Scientific). The effect of a particular test compound concentration on NUT-foci number and intensity is expressed as percentage of the value obtained for cells treated with vehicle only (DMSO, 0.1% final concentration), which was set as 100.

Test [2] relates to MV-4-11 cells. Briefly: Cell growth inhibition assay (CellTiter-Glo), MV-4-11. It is filed as cell-based, human. Particulars: MV-4-11, 4 days; for GI50: half-maximal growth inhibition; for MV-4-11 TGI: total growth inhibition. The method, then: (§1) The human leukemia cell lines MV-4-11, THP-1 and K-562 were employed to characterize the effect of BET inhibitors on cellular proliferation and viability. Cells were obtained from the American Type Culture Collection (ATCC) and cultured at 37° C. in a humidified 5% CO2 incubator in the following media: MV-4-11: DMEM high glucose (Animed #1-26F01-I), 10% FCS (Animed #2-01F26-I), 4 mM L-Glutamine (Animed #5-10K50), 1 mM Sodium Pyruvate (Animed # G03625P), 1× Penicillin-Streptomycin (Animed # F12478P); K-562: Iscove's MEM (Animed #1-28F16-I), 10% FCS (Animed #2-01F26-I), 4 mM L-Glutamine (Animed #5-10K50), 1× Penicillin-Streptomycin (Animed # F12478P); THP-1: RPMI-1640 (Animed #1-41F01-I), 10% FCS (Animed #2-01F26-I), 2 mM L-Glutamine (Animed #5-10K50), 10 mM HEPES (Animed #5-31F100), 1 mM Sodium Pyruvate (Animed # G03625P), 1× Penicillin-Streptomycin (Animed # F12478P). The AML lines MV-4-11 and THP-1 are very sensitive to BET inhibitors and show massive cell death upon BET inhibition (Zuber et al., Nature, 478 (2011), 524-8). Compound-mediated suppression of cell proliferation/viability was assessed by quantification of cellular ATP levels using the CellTiter-Glo (CTG) reagent (Promega). Briefly, cells were seeded in 20 μl fresh medium into 384-well plates, followed by addition of 5 μl medium containing compound dilutions at 5-fold their final intended concentration. Dose-response effects were assessed by 3-fold serial dilutions of the test compound, starting at 10 μM. Following incubation of the cells for 4 days at 37° C. and 5% CO2, the effect of inhibitors on cell viability was quantified following addition of 20 μl CTG and luminescence quantification (integration time: 100 ms) as per vendor manual, using a correspondingly equipped Tecan M200 multi-mode platereader (TECAN, Switzerland). For data analysis, the assay background value determined in wells containing medium, but no cells, was subtracted from all data points. To enable differentiation of cytotoxic from cytostatic compounds, the number of viable cells is assessed relative to that observed at the time of compound addition using a separate cell plate (day 0). The effect of a particular test compound concentration on cell proliferation/viability is expressed as percentage of the background- and day 0-corrected luminescence reading obtained for cells treated with vehicle only (DMSO, 0.1% final concentration), which is set as 100%, whereas that luminescence reading for wells containing medium is set as −100%. Compound concentrations leading to half-maximal (1050) and total growth inhibition (TGI) were determined using standard four parameter curve fitting.
A general note: ATP-based viability assays read luminescence as a measure of living cells.

Test [3] relates to THP-1 cells. Put plainly: Cell growth inhibition assay (CellTiter-Glo), THP-1. Type of test: cell-based, human. Particulars: THP-1, 4 days; for GI50: half-maximal growth inhibition; for THP-1 TGI: total growth inhibition. The method, then:
as §1

On to `CNC1=C(C(=N)C2CC2)C(=O)N(c2cc(C)c(=O)n(C)c2)[C@@H]1c1ccc(Cl)cc1` [Example 2], for which 20.1 nM corresponded to half-maximal inhibition in test [1] (IC50). In test [2], the GI50 was found to be 15.4 nM and the “MV-4-11 TGI” value was found to be 30.3 nM. In test [3], it took 21.9 nM to inhibit growth by half (GI50) and the “THP-1 TGI” value came out at 46.8 nM.
With `Cc1nn(C)c2c1C(=O)N(c1cc(C)c(=O)n(C)c1)C2c1ccc(Cl)cc1` (stereo not shown) [Example 10, 6-(4-chlorophenyl)-5-(1,5-dimethyl-6-oxo-1,6-dihydropyridin-3-yl)-1,3-dimethyl-5,6-dihydropyrrolo[3,4-c]pyrazol-4(1H)-one], the IC50 in test [1] came out at 108 nM. Further, the GI50 in test [2] (Homo sapiens, MV4-11, 96 h) was 39.4 nM; in test [3] (Homo sapiens, 96 h) it was 76.4 nM. The “MV-4-11 TGI” value in test [2] worked out at 65.5 nM. Also, the “THP-1 TGI” value in test [3] was 132 nM.
Consider `Cc1cc(N2C(=O)c3c(C4CC4)n[nH]c3[C@H]2c2ccc(Cl)cc2)cn(C)c1=O` [Example 24, (R)-6-(4-chlorophenyl)-3-cyclopropyl-5-(1,5-dimethyl-6-oxo-1,6-dihydropyridin-3-yl)-5,6-dihydropyrrolo[3,4-c]pyrazol-4(1H)-one], for which the GI50 was 21.6 nM in test [2] (Homo sapiens, MV4-11, 96 h) and 29.7 nM in test [3] (Homo sapiens, 96 h). Further, in test [2], the “MV-4-11 TGI” value was determined as 34.95 nM. The “THP-1 TGI” value in test [3] amounted to 62.25 nM.
With `COc1ncccc1-n1nc2c(c1C)C(=O)N(c1cc(Cl)c(=O)n(C)c1)C2c1ccc(Cl)cc1` (stereo not shown) [Example 7b, 5-(5-chloro-1-methyl-6-oxo-1,6-dihydropyridin-3-yl)-6-(4-chlorophenyl)-2-(2-methoxypyridin-3-yl)-3-methyl-5,6-dihydropyrrolo[3,4-c]pyrazol-4(2H)-one], in test [1], the IC50 amounted to 74.4 nM. Besides, the GI50 in test [2] (Homo sapiens, MV4-11, 96 h) is 56.7 nM; in test [3] (Homo sapiens, 96 h), 104 nM. Besides, the “MV-4-11 TGI” value in test [2] stood at 82.4 nM. In addition, the “THP-1 TGI” value in test [3] was found to be 285 nM.
`Cc1cc(N2C(=O)c3c(C4CC4)nn(C)c3C2c2ccc(Cl)cc2)cn(C)c1=O` (stereo not shown) [Example 1, 6-(4-chlorophenyl)-3-cyclopropyl-5-(1,5-dimethyl-6-oxo-1,6-dihydropyridin-3-yl)-1-methyl-5,6-dihydropyrrolo[3,4-c]pyrazol-4(1H)-one] had an IC50 in test [1] of 33.3 nM. For the same compound, the GI50 in test [2] (Homo sapiens, MV4-11, 96 h) is 24.6 nM; in test [3] (Homo sapiens, 96 h), 44.9 nM. For the same compound, in test [2], the “MV-4-11 TGI” value was 41.2 nM. The “THP-1 TGI” value in test [3] was 104 nM.
In turn, `COCCn1nc(C2CC2)c2c1C(c1ccc(Cl)cc1)N(c1cc(C)c(=O)n(C)c1)C2=O` (stereo not shown) [Example 4, 6-(4-chlorophenyl)-3-cyclopropyl-5-(1,5-dimethyl-6-oxo-1,6-dihydropyridin-3-yl)-1-(2-methoxyethyl)-5,6-dihydropyrrolo[3,4-c]pyrazol-4(1H)-one] came in with an IC50 in test [1] of 29.9 nM. For the same compound, the GI50 in test [2] (Homo sapiens, MV4-11, 96 h) is 20.5 nM; in test [3] (Homo sapiens, 96 h) it was 45.6 nM. The “MV-4-11 TGI” value in test [2] is 33.6 nM. In addition, the “THP-1 TGI” value in test [3] turned out to be 100 nM.
Consider `COc1ncccc1-n1nc(C)c2c1[C@@H](c1ccc(Cl)cc1)N(c1cc(C)c(=O)n(C)c1)C2=O` [Example 25, (R)-6-(4-chlorophenyl)-5-(1,5-dimethyl-6-oxo-1,6-dihydropyridin-3-yl)-1-(2-methoxypyridin-3-yl)-3-methyl-5,6-dihydropyrrolo[3,4-c]pyrazol-4(1H)-one], for which the GI50 was determined as 40.7 nM in test [2] (Homo sapiens, MV4-11, 96 h) and 72.7 nM in test [3] (Homo sapiens, 96 h). Moreover, the “MV-4-11 TGI” value in test [2] was 72.55 nM. In addition, the “THP-1 TGI” value in test [3] is 135.5 nM.
The corresponding values for `COc1ncc(-n2nc(C)c3c2C(c2ccc(Cl)cc2)N(c2cc(C)c(=O)n(C)c2)C3=O)cn1` (stereo not shown) [Example 21a, 6-(4-chlorophenyl)-5-(1,5-dimethyl-6-oxo-1,6-dihydropyridin-3-yl)-1-(2-methoxypyrimidin-5-yl)-3-methyl-5,6-dihydropyrrolo[3,4-c]pyrazol-4(1H)-one] are 115 nM, 166 nM, 177 nM and 331 nM.
The corresponding values for `Cc1cc(N2C(=O)c3c(C4CC4)nn(-c4ccnn4C)c3[C@H]2c2ccc(Cl)cc2)cn(C)c1=O` [Example 22, (R)-6-(4-chlorophenyl)-3-cyclopropyl-5-(1,5-dimethyl-6-oxo-1,6-dihydropyridin-3-yl)-1-(1-methyl-1H-pyrazol-5-yl)-5,6-dihydropyrrolo[3,4-c]pyrazol-4(1H)-one] are 49.5 nM, 87.4 nM, 88.65 nM and 165 nM.
Taken in the same sequence, the figures for `Cc1[nH]nc2c1C(=O)N(c1cc(Cl)c(=O)n(C)c1)[C@@H]2c1ccc(Cl)cc1` [Example 28, (R)-5-(5-chloro-1-methyl-6-oxo-1,6-dihydropyridin-3-yl)-6-(4-chlorophenyl)-3-methyl-5,6-dihydropyrrolo[3,4-c]pyrazol-4(2H)-one] were 49.3 nM, 110 nM, 86.4 nM and 201.5 nM.
As to `COc1ccc(-n2nc(C)c3c2C(c2ccc(Cl)cc2)N(c2cc(C)c(=O)n(C)c2)C3=O)cc1` (stereo not shown) [Example 13, 6-(4-chlorophenyl)-5-(1,5-dimethyl-6-oxo-1,6-dihydropyridin-3-yl)-1-(4-methoxyphenyl)-3-methyl-5,6-dihydropyrrolo[3,4-c]pyrazol-4(1H)-one], the GI50 in test [2] (Homo sapiens, MV4-11, 96 h) was 30 nM; in test [3] (Homo sapiens, 96 h), 69.8 nM. For the same compound, in test [2], the “MV-4-11 TGI” value was 56.2 nM. In test [3], the “THP-1 TGI” value amounted to 119 nM.
The corresponding values for `COc1ncccc1-n1nc2c(c1C)C(=O)N(c1cc(C)c(=O)n(C)c1)[C@@H]2c1ccc(Cl)cc1` [Example 26, (R)-6-(4-chlorophenyl)-5-(1,5-dimethyl-6-oxo-1,6-dihydropyridin-3-yl)-2-(2-methoxypyridin-3-yl)-3-methyl-5,6-dihydropyrrolo[3,4-c]pyrazol-4(2H)-one] are 22.6 nM, 27.6 nM, 36.75 nM and 52.4 nM.
For `COc1ncc(-n2nc3c(c2C)C(=O)N(c2cc(C)c(=O)n(C)c2)C3c2ccc(Cl)cc2)cn1` (stereo not shown) [Example 21b, 6-(4-chlorophenyl)-5-(1,5-dimethyl-6-oxo-1,6-dihydropyridin-3-yl)-2-(2-methoxypyrimidin-5-yl)-3-methyl-5,6-dihydropyrrolo[3,4-c]pyrazol-4(2H)-one], the GI50 in test [2] (Homo sapiens, MV4-11, 96 h) amounted to 105 nM; in test [3] (Homo sapiens, 96 h), 209 nM. Moreover, the “MV-4-11 TGI” value in test [2] was determined as 208 nM. For the same compound, the “THP-1 TGI” value in test [3] was determined as 396 nM.
For `COc1ncc(-n2nc3c(c2C)C(=O)N(c2cc(C)c(=O)n(C)c2)C3c2ccc(Cl)cc2)c(OC)n1` (stereo not shown) [Example 14, 6-(4-chlorophenyl)-2-(2,4-dimethoxypyrimidin-5-yl)-5-(1,5-dimethyl-6-oxo-1,6-dihydropyridin-3-yl)-3-methyl-5,6-dihydropyrrolo[3,4-c]pyrazol-4(2H)-one], the GI50 in test [2] (Homo sapiens, MV4-11, 96 h) is 122 nM; in test [3] (Homo sapiens, 96 h) it was 219 nM. Also, the “MV-4-11 TGI” value in test [2] was found to be 203 nM. Besides, in test [3], the “THP-1 TGI” value worked out at 352 nM.

A word on the IC50: it is the concentration needed to halve the response being measured. As usually defined, the GI50 is the concentration that inhibits growth by half. Lower therefore signals more potent growth inhibition.
